Holding throughout (assay type): functional
Assay [1] relates to Micrococcus luteus. Kind of assay: In vitro inhibitory concentration required against Micrococcus luteus (Micrococcus luteus).
Assay [2] has as its system Staphylococcus epidermidis. Kind of assay: In vitro inhibitory concentration required against Staphylococcus epidermidis (Staphylococcus epidermidis).
The test system of assay [3] is Staphylococcus aureus. Kind of assay: In vitro inhibitory concentration required against Staphylococcus aureus (Staphylococcus aureus).

The record followed here is ChEMBL document CHEMBL1136092, “Enantiotracin” (2003).

Converted amounts (≈) assume the structure as drawn.

As for `CC[C@H](C)[C@@H](N)C1=N[C@@H](C(=O)N[C@H](CC(C)C)C(=O)N[C@@H](CCC(=O)O)C(=O)N[C@@H](C(=O)N[C@@H]2CCCCNC(=O)[C@@H](CC(N)=O)NC(=O)[C@H](CC(=O)O)NC(=O)[C@@H](Cc3c[nH]cn3)NC(=O)[C@H](Cc3ccccc3)NC(=O)[C@@H]([C@@H](C)CC)NC(=O)[C@H](CCCN)NC2=O)[C@@H](C)CC)CS1` (stereo in doubt; form 1) [BACITRACIN A], the minimum inhibitory concentration (MIC) was less than 0.013 µg/mL in assay [1]; 32 µg/mL (≈ 22.5 µM) in assay [2] (Staphylococcus epidermidis, read-out: MIC); 4 µg/mL (≈ 2.81 µM) in assay [3] (Staphylococcus aureus, read-out: MIC).
Turning to `CC[C@H](C)[C@@H](N)C1=N[C@@H](C(=O)N[C@H](CC(C)C)C(=O)N[C@@H](CCC(=O)O)C(=O)N[C@@H](C(=O)N[C@@H]2CCCCNC(=O)[C@@H](CC(N)=O)NC(=O)[C@H](CC(=O)O)NC(=O)[C@@H](Cc3c[nH]cn3)NC(=O)[C@H](Cc3ccccc3)NC(=O)[C@@H]([C@@H](C)CC)NC(=O)[C@H](CCCN)NC2=O)[C@@H](C)CC)CS1` (stereo in doubt; form 2) [BACITRACIN A], the figures for the minimal inhibitory concentration (MIC) in assay [2] and in assay [3] were 32 µg/mL (≈ 22.5 µM) and 4 µg/mL (≈ 2.81 µM), respectively.
